What was measured:
[1] = MTT cytotoxicity in uninduced ∆K280 TauRD‐DsRed 293 cells; assay type: cell-based; conditions: human
Description: (§1) Licochalcone A and five derivative LM compounds were tested (Figure 1a). All six compounds were soluble up to 100 μM in a cell culture medium (Figure S1a). Based on molecular weight (MW), hydrogen bond donors (HBD), hydrogen bond acceptors (HBA), and calculated octanol/water partition coefficient (cLogP), all six compounds meet Lipinski's criteria in predicting oral bioavailability (Lipinski, Lombardo, Dominy, & Feeney, 1997) (Figure S1b). […] To choose the optimal treatment dose used for the best efficacy of the candidate compounds, a specific type of biphasic dose response of a compound called hormesis should take into consideration. Evidence has shown that a wide range of pharmaceutical products display a hermetic dose‐response feature, characterized by a low‐dose stimulation and a high‐dose inhibition (Calabrese et al., 2018; Concetta Scuto et al., 2019; Pilipenko et al., 2019). Therefore, we tested the compounds at a range of doses to find the optimal dose for the best therapeutic effect and the least cytotoxicity. Firstly, MTT assay was performed using uninduced ∆K280 TauRD‐DsRed 293 and retinoic acid‐differentiated SH‐SY5Y cells following treatment with the test compounds (0.1–10 μM) for 3 (for 293 cells) or 7 (for SH‐SY5Ycells) days. […] Congo red is an amyloidogenic dye known to reduce Aβ neurotoxicity (Lorenzo & Yankner, 1994).
(§2) Licochalcone A was purchased from Sigma-Aldrich, St. Louis, MO, USA. In-house LM compounds were synthesized and characterized by NMR spectrum as described (Lee et al., 2012, 2015, 2018). Tet-On ∆K280 TauRD-DsRed 293 and SH-SY5Y cells (Chang et al., 2016) were cultured in Dulbecco’s modified Eagles medium (DMEM) (293) or DMEM-F12 (SH-SY5Y) containing 10% fetal bovine serum (Invitrogen, Carlsbad, CA, USA), 5 μg/ml of blasticidin, and 100 μg/ml of hygromycin (InvivoGen, San Diego, CA, USA). Compound cytotoxicity was assessed by colorimetric assay for measuring cell metabolic activity. Briefly, 5 × 10^4 cells were plated (48-well plates), grown for 20 h, and treated with the test compounds ([…]). […], 20 µl of 3-(4,5-dimethylthiazol-2-yl)-2,5-diphenyltetrazolium bromide (MTT, 5 mg/ml in PBS; Sigma-Aldrich) was added to the cells and incubated at 37°C for 3 h. Then 200 µl of lysis buffer (10% Triton X-100, 0.1 N HCl, 18% isopropanol) was added and the absorbance of the insoluble product at OD 570 nm was measured by a microplate reader (FLx800 fluorescence microplate reader, Bio-Tek, Winooski, VT, USA). The half-maximal inhibitory concentration (IC50) was calculated using the interpolation method.
(§3) Figure S1. Test compounds. (a) Solubility (in cell culture medium) of test compounds. (b) Molecular weight (MW), hydrogen bond donor (HBD), hydrogen bond acceptor (HBA), calculated octanol-water partition coefficient (cLogP), polar surface area (PSA), and predicted blood-brain barrier (BBB) score of test compounds. (c) Cytotoxicity of test compounds against ∆K280 TauRD-DsRed 293 and SH-SY5Y cells using the MTT assay. Uninduced 293 cells were plated on day 1 and treated with 0.1–10 μM test compounds on day 2. Cell viability was measured on day 5 (n = 3). In addition, uninduced SH-SY5Y cells were seeded with all trans retinoic acid (RA; 10 µM) on day 1 and treated with 0.1–10 μM test compounds on day 2. Cell viability was measured on day 9 (n = 3). To normalize, the relative viability in compound untreated cells was set at 100%. IC50 values are listed.

[2] = MTT cytotoxicity in uninduced retinoic acid‐differentiated SH‐SY5Y cells; assay type: cell-based; conditions: human
Description: as §1, §2, §3

[3] = Cytotoxicity by survived cell number in 293 cells expressing ∆K280 TauRD‐DsRed; assay type: cell-based; conditions: human; 293 cells expressing ∆K280 TauRD‐DsRed for 3 days
Description: In ∆K280 TauRD‐DsRed 293 cells, a proaggregant (ΔK280) Tau repeat domain (TauRD) containing residues 244–372 of the full‐length 4R2N Tau441 was fused in‐frame with DsRed fluorophore. Compared to the wild‐type TauRD, the poorly folded ΔK280 TauRD formed aggregates, which adversely affected the folding of fused DsRed and thus decreased DsRed fluorescence, as also evidenced by increase in thioflavin S fluorescence emission (Chang et al., 2017). Thioflavin S is a reporter dye for studies of Tau toxicity and pharmacologic prevention in cell model of tauopathy (Pickhardt et al., 2017). It binds to amyloid fibrils but not monomers and gives a distinct increase in fluorescence emission. Inhibition of Tau aggregation may improve DsRed misfolding, leading to increased fluorescence in ΔK280 TauRD‐DsRed‐expressing cells. Utilizing the established Tet‐on ΔK280 TauRD‐DsRed 293 cells (Chang et al., 2016), licochalcone A and LM compounds were tested for effects of reducing Tau misfolding and anti‐oxidation (Figure S2a). Congo red was included for comparison. […] In the following experiments, DsRed fluorescence was measured in wells containing at least 80% viable cells. […] Due to the features of their effectiveness and less cytotoxicity, licochalcone A (1 μM) and LM‐031 (1 μM) were chosen as the candidate compounds for the following experiments. […] Representative DsRed and thioflavin S fluorescent images of ∆K280 TauRD‐DsRed‐expressing cells untreated or treated with congo red (10 µM), licochalcone A (1 µM), or LM‐031 (1 µM) are shown in Figure S2d.
DsRed fluorescence of proaggregant ∆K280 TauRD-DsRed 293 cells was evaluated to reflect Tau aggregation. On day 1, cells were seeded on a 96-well plate in a density of 0.8 × 10^4 cells/well. […] On the fifth day, the cells were stained with Hoechst 33342 (0.1 µg/ml; Sigma-Aldrich) for 30 min to identify total cell number; DsRed fluorescence images (543 nm excitation and 593 nm emission) were automatically captured by using the ImageXpressMICRO high-content imaging system (Molecular Devices, Sunnyvale, CA, USA) and analyzed using MetaXpress image acquisition and analysis software (Molecular Devices). In addition, the cells were fixed with paraformaldehyde (4% in PBS) for 15 minutes, permeabilized with methanol (80%) for 6 minutes at -20°C, incubated with thioflavin S (0.02%; Sigma-Aldrich) and 4’,6-diamidino-2-phenylindole (DAPI) (0.1 μg/ml; Sigma-Aldrich) for 5 minutes, and washed in ethanol (50%). Thioflavin S images ([…]) were captured and analyzed as described. In general, 2 × 10^4 cells in each biological replicate were analyzed.
Figure S2. ΔK280 TauRD-DsRed 293 cells. (a) Experimental flow chart. Cells were plated on day 1. On day 2, the cells were treated with congo red or test compounds for 8 h; addition of doxycycline (Dox; 1 µg/ml) followed. DsRed/thioﬂavin S fluorescence, ROS, and caspase 3 activity were assessed on day 5. (b) Cytotoxicity of the test compounds against 293 cells expressing ∆K280 TauRD-DsRed for 3 days using the survived cell number (n = 3). IC50 values are listed. (c) Dose response curves of LM-031 based on DsRed fluorescence measurement. (d) Fluorescent images of ΔK280 TauRD-DsRed 293 cells untreated or treated with congo red (10 µM), licochalcone A (1 µM), or LM-031 (1 µM). Nuclei were counterstained with Hoechst 33342 (blue), and merged DsRed and Hoechst 33342 signals were shown. In addition, tau aggregation was monitored by staining with thioﬂavin S (green).

Compound | IC50 at 3 days [1] | IC50 at 7 days [2] | IC50 at 3 days [3] | transport across PAMPA membrane (integrity marker)
COc1ccc(O)c(/C=C/C(=O)c2ccccc2)c1 [LM‐006] | 6.4 µM | 4.7 µM | 5.3 µM | –
COc1cccc(/C=C/C(=O)c2ccc(O)cc2)c1O [LM‐026] | 7.7 µM | 5.4 µM | 8.5 µM | –
Lucifer yellow | – | – | – | undetectable
Cc1ccc(/C=C/C(=O)c2c(O)c3ccccc3oc2=O)cc1 [LM‐016] | 9.3 µM | 6 µM | 9.4 µM | –

Source: PMC7433010, “Exploration of multi‐target effects of 3‐benzoyl‐5‐hydroxychromen‐2‐one in Alzheimer’s disease cell and mouse models” (Aging Cell, 2020)
